From patent US4387086A, “Organic compounds” (Sandoz Ltd., priority 1979, dated 1983)

Tested on: antiserum of Example 4
Assay: Cross-reactivity of the antiserum: inhibition by 50% of the reaction between antibody (antiserum) and tracer antigen (tritiated thioridazine)
Format: binding, sheep
Conditions: relative to thioridazine; tracer tritiated thioridazine
From the text: The selectivity of the method can be determined as follows.
The main metabolites of thioridazine having a structure closely related to the parent compound are thioridazine-derivatives oxidized in the 2-methylthio side chain, more specifically the sulfoxide (A) and the sulfone (B), and also demethyl-thioridazine (C). The cross-reactivity of the antiserum was examined by employing a mixture of thioridazine, its sulfoxide A and sulfone B and its demethyl-thioridazine C in the amount required to inhibit the reaction between antibody (antiserum) and tracer antigen (tritiated thioridazine) by 50%.

| SMILES | inhibitory concentration where 50% binding to the antiserum of Example 4 occurs, times higher than that of the parent compound [times] |
| --- | --- |
| CN1CCCCC1CCN1c2ccccc2Sc2ccc([S+](C)[O-])cc21 (stereo not drawn) [A] | 67 |
| CN1CCCCC1CCN1c2ccccc2Sc2ccc(S(C)(=O)=O)cc21 (stereo not drawn) [B] | 93 |
| CSc1ccc2c(c1)N(CCC1CCCCN1)c1ccccc1S2 (stereo not drawn) [C, demethyl-thioridazine] | 111 |
